Reference: US7476692B2, “Pharmaceutical compositions of safingol and methods of using the same” (priority 2003, dated 2009)
In brackets after ≈: the same amount, converted by molar mass. One block for each compound: values may come before it.

Tests used:
Fisher rats = settings: Group III: 4-HPR 61 mg/kg/d D1-5 continuous iv, safingol 0; 3 male rats
sphingosine kinase = settings: variously reported in the literature; cited from earlier work
protein kinase C (PKC) = settings: variously reported; acting at the regulatory subunit of PKCs; cited from earlier work
[1] = Solubility/miscibility studies of safingol in solvent systems
Description: (§1) The following solubility/miscibility studies were performed with safingol at various concentrations.

Description for physchem: as §1

Structure (SMILES): CC1=C(/C=C/C(C)=C/C=C/C(C)=C/C(=O)Nc2ccc(O)cc2)C(C)(C)CCC1 [4-HPR, fenretinide]
- Toxicity: din path (Fisher rats): din path: normal
- Toxicity: dinical signs (Fisher rats): dinical signs: normal
- Toxicity: necropsy: discoloration(lung) (Fisher rats): 3/3
- Toxicity: necropsy: emaciation (Fisher rats): 1/3

- Precipitate at 2° C. to 8° C. ([1]; 50:50 Ethanol:WFI with lactic acid): precipitate formation
- Solubility (Result) ([1]; Castor oil): not soluble
- Solubility (Result) ([1]; Citric acid/WFI): not soluble
- Solubility (Result) ([1]; DMSO): not soluble
- Solubility (Result) ([1]; HC1/WFI): not soluble
- Solubility (Result) ([1]; HCl/Ethanol): not soluble
- Precipitate at 2° C. to 8° C. ([1]; Lactic acid in 2% EPL in WFI): no precipitate
- Solubility (Result) ([1]; Lactic acid in 2% EPL in WFI): solubility similar to lactic without EPL
- Precipitate at 2° C. to 8° C. ([1]; Lactic acid/Ethanol): precipitate formation
- Precipitate at 2° C. to 8° C. ([1]; Lactic acid/WFI): precipitate formation
- Solubility (Result) ([1]; Maleic acid/WFI): not soluble
- Solubility (Result) ([1]; Malic acid/WFI): not soluble
- Solubility (Result) ([1]; Methanesulfonic acid/Ethanol): not soluble
- Solubility (Result) ([1]; Neobee oil): Not soluble
- Temperature at which later found to be soluble ([1]; Neobee oil): ~80 °C
- Solubility (Result) ([1]; Pluronic F-68/WFI): not soluble
- Precipitate at 2° C. to 8° C. ([1]; Propionic acid/WFI): precipitate formation
- Solubility (Result) ([1]; Safflower oil, attempted: 0.5 mg/mL): Not soluble (attempted: 0.5 mg/mL)
- Solubility (Result) ([1]; Sesame oil, attempted: 0.5 mg/mL): Not soluble (attempted: 0.5 mg/mL)
- Solubility (Result) ([1]; Sodium Lactate/WFI): not soluble
- Solubility (Result) ([1]; Soybean oil): Not soluble
- Temperature at which later found to be soluble ([1]; Soybean oil): ~80 °C
- Solubility (Result) ([1]; Tartaric acid/WFI): not soluble
- Solubility (Result) ([1]; Tricaprylin, attempted: 0.5 mg/mL): Not soluble (attempted: 0.5 mg/mL)
- Solubility (Result) ([1]; Tween-80): not soluble
- Solubility (Result) ([1]; Valium solvent, attempted: 0.5 mg/mL): Not soluble (attempted: 0.5 mg/mL)
- Solubility (Result) ([1]; Vitamin E (α-tocopherol)): not soluble
- Effect of ethanol on solubility of safingol ([1]; lactic acid/water solutions): substantially increased
- solubility (physchem; 50:50 ethanol:WFI with lactic acid, aqueous with cosolvent or surfactant or cyclodextrin): ~50000 µg/mL (≈ 166 mM)
- solubility (physchem; 60:40 t-BuOH/WFI, aqueous with cosolvent or surfactant or cyclodextrin): 15700 µg/mL (≈ 52 mM)
- solubility (physchem; DMAC, organic solvent or mixture): 6600 to 7400 µg/mL (≈ 21.9 to 24.5 mM)
- solubility (physchem; Diluent 12, organic solvent or mixture): 7220 µg/mL (≈ 23.9 mM)
- solubility (physchem; PEG 300, organic solvent or mixture): 1010 to 1060 µg/mL (≈ 3.35 to 3.52 mM)
- solubility (physchem; ethanol, organic solvent or mixture): 7500 to 8200 µg/mL (≈ 24.9 to 27.2 mM)
- solubility (physchem; lactic acid in WFI with 5 mg/mL mannitol, aqueous buffer): 10000 µg/mL (≈ 33.2 mM)
- solubility (physchem; lactic acid/WFI, aqueous buffer): > 10000 µg/mL
- solubility (physchem; lactic acid/ethanol, organic solvent or mixture): ~20000 µg/mL (≈ 66.3 mM)
- solubility (physchem; propionic acid/WFI, aqueous buffer): ≥ 5000 µg/mL
- solubility (physchem; propylene glycol, organic solvent or mixture): 1060 to 1350 µg/mL (≈ 3.52 to 4.48 mM)
- solubility (physchem; t-butanol, organic solvent or mixture): > 25000 µg/mL
Structure (SMILES): CCCCCCCCCCCCCCC[C@H](O)[C@@H](N)CO [Safingol, (2S,3S)-2-amino-1,3-octadecanediol]
- Inhibition of sphingosine kinase (sphingosine kinase): inhibitor
- Inhibition of protein kinase C (PKC), including PKCζ (protein kinase C (PKC)): inhibitor
- Solubility (Result) ([1]; Methanesulfonic acid/WFI): not soluble, but the appearance of the safingol changed,
- Precipitates on chilling, versus non-ethanol-containing solutions ([1]; ethanol-containing safingol/lactic acid solutions chilled to 2-8° C., then warmed to room temperature): reduced in quantity and dissolved much more readily
